One data set concerns the target T1, P. falciparum rPfAM17 (Plasmodium falciparum, UniProt Q8IL11).
T1 construct: made in house; host or cells: Escherichia coli Rosetta 2 (DE3)
T1 sequence (Q8IL11 1-605): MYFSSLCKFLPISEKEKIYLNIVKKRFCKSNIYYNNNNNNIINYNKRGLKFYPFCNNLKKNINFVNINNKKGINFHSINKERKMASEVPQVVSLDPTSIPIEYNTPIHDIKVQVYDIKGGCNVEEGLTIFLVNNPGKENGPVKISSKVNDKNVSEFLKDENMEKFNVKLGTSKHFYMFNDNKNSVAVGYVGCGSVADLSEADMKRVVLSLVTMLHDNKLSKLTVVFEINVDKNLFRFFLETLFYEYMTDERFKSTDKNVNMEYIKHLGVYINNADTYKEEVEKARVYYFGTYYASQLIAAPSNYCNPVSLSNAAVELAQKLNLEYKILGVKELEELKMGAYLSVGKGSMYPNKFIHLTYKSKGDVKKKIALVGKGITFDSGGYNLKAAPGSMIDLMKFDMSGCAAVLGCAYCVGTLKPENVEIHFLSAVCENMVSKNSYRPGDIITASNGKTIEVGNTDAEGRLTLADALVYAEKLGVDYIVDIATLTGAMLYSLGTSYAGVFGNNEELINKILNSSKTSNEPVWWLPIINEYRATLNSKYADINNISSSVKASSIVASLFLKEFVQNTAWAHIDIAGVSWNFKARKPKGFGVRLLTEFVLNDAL
More on the design: method as in PMID 28934959. The settings on record: ref 69; cited from earlier work.

Another data set deals with T2, P. falciparum rPfAM1 (Plasmodium falciparum, UniProt O96935).
T2 construct: made in house; host or cells: Escherichia coli Rosetta 2 (DE3)
T2 sequence (O96935 1-1085): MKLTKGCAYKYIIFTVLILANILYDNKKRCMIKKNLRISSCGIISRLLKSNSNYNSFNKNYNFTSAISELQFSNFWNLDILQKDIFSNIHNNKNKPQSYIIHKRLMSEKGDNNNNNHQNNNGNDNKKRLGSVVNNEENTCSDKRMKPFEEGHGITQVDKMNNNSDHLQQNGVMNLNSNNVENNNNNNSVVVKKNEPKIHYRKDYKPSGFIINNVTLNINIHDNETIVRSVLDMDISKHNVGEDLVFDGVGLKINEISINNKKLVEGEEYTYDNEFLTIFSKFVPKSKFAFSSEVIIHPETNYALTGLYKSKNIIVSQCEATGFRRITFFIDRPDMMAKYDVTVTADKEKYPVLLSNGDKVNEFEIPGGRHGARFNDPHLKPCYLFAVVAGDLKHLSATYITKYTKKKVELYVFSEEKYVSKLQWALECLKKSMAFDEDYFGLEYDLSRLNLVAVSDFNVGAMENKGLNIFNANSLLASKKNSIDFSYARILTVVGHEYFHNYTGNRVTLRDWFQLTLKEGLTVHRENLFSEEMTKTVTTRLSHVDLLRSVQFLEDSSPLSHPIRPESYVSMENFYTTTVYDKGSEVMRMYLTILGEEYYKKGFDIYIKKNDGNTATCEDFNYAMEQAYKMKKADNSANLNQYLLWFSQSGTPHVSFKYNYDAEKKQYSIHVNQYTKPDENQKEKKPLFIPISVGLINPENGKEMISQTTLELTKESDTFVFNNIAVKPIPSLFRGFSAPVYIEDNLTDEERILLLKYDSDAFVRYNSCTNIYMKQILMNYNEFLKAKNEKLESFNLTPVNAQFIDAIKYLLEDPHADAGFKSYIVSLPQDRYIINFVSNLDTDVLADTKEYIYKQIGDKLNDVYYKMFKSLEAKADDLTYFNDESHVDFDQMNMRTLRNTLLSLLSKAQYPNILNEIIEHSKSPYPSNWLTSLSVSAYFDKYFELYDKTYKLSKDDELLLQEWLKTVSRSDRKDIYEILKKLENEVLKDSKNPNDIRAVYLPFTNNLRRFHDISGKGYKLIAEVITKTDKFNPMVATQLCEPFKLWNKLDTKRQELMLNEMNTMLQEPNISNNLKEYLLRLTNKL
The arrangement: method as in PMID 28934959. The conditions noted are these: read-out: Ki rPfAM1; cited from earlier work.

In a further data set the target is pAPN from porcine kidney. The settings on record: Dixon plots; cited from earlier work.
Data set [1] in a line: Octanol/water partition coefficient (logD7.4) by reversed-phase HPLC. The settings on record: pH 7.4.
Protocol: The flow was 0.9 mL/min. The aminobenzosuberone derivatives were dissolved at 0.4 µM in methanol. The standards were also dissolved in methanol. Column void volume was estimated from the retention time of uracil, which was included as a non-retained internal reference with each injection.
Data set [2] concerns the target T3, human endoplasmic reticulum aminopeptidase 2 (rHsERAP2) (Homo sapiens, UniProt Q6P179).
T3 construct: made in house; host or cells: Hi5 insect cells (baculovirus produced in sf9)
Kind of data set: rHsERAP2 inhibition, R-AMC fluorigenic substrate. The data set is classed as biochemical. The conditions noted are these: 50 µM R-AMC. How it is done: (§1) The enzymatic activity of HsERAP1, HsERAP2 and HsIRAP was determined by following the time-dependent increase in fluorescence at 460 nm (excitation: 380 nm) of the fluorigenic substrates L-Leucine-7-amido-4-methyl coumarin (L-AMC; Sigma, Darmstatd, Germany) for HsERAP1 and HsIRAP and L-arginyl-7-amido-4-methyl coumarin (R-AMC; Sigma) for HsERAP2. […] The reaction was followed for 10 min at room temperature and the remaining enzymatic activity was calculated by measuring the slope of the time course.

Data set [3] concerns the target aminopeptidase from A. proteolytica (AAP). More on the design: method as in PMID 21843945. The settings on record: ref 58; cited from earlier work.
For data set [4], the target named is human puromycine sensitive aminopeptidase (rHsPSA) (Homo sapiens, UniProt P55786). As to the kind of experiment: rHsPSA inhibition, Leu-pNA substrate, Dixon method. The data set is classed as biochemical. The settings on record: triplicate, SD. How it is done:
Enzyme activity assays were carried out in 10 mM Tris-HCl buffer at pH 7.5 with 150 mM NaCl, enzyme, 100 µM substrate (Leu-pNA) in a 100 μL reaction at 37 °C. The absorbance was read at 405 nm. Concentrations ranging from 1 nM to 100 μM of inhibitors (dissolved in DMSO) were incubated with each of the enzymes ([…]) for 30 min at 37 °C in a 96 well plate. After addition of the substrate, immediate increase in absorption was measured. All inhibition assays were performed in triplicates and initial velocities were measured. Percentage inhibition and log values of inhibitor concentrations were plotted using SigmaPlot to determine IC50 values. Ki values were determined by the Dixon method. The assay consists of reaction buffer, enzyme and varied concentrations of Leu-pNA (25, 50, 100, 200 and 400 µM). […]. All the reactions were performed in triplicates, SD values were reported.

The target in a further data set is E. coli rEcPepN (Escherichia coli, UniProt P04825). Kind of data set: rEcPepN inhibition, Leu-pNA substrate, Dixon method. The data set is classed as biochemical. The procedure:
Enzyme activity assays were carried out in 10 mM Tris-HCl buffer at pH 7.5 with 150 mM NaCl, enzyme, 100 µM substrate (Leu-pNA) in a 100 μL reaction at 37 °C. The absorbance was read at 405 nm. Concentrations ranging from 1 nM to 100 μM of inhibitors (dissolved in DMSO) were incubated with each of the enzymes ([…]) for 30 min at 37 °C in a 96 well plate. After addition of the substrate, immediate increase in absorption was measured. All inhibition assays were performed in triplicates and initial velocities were measured. Percentage inhibition and log values of inhibitor concentrations were plotted using SigmaPlot to determine IC50 values. Ki values were determined by the Dixon method. The assay consists of reaction buffer, enzyme and varied concentrations of Leu-pNA (25, 50, 100, 200 and 400 µM). […] Data were plotted as 1/rate versus inhibitor concentration for each substrate concentration and a linear fit was calculated by non-linear regression using SigmaPlot12.5. All the reactions were performed in triplicates, SD values were reported.

Data set [5] addresses T4, human endoplasmic reticulum aminopeptidase 1 (rHsERAP1) (Homo sapiens, UniProt Q9NZ08).
T4 construct: made in house; host or cells: Hi5 insect cells (baculovirus produced in sf9)
As to the kind of experiment: rHsERAP1 inhibition, L-AMC fluorigenic substrate. The conditions noted are these: 50 µM L-AMC. The data set is classed as biochemical. The procedure:
as §1

Data set [6] addresses human leukotriene A4 hydrolase (rHsLTA4H). The arrangement: method as in PMID 21843945. The conditions noted are these: ref 58; cited from earlier work.
Data set [7] addresses P. falciparum M17 aminopeptidase (PfAM17). The settings on record: ref 45; cited from earlier work.
For data set [8], the target named is human endoplasmic reticulum aminopeptidase 1 (HsERAP1). The conditions noted are these: ref 41; cited from earlier work.
The target in data set [9] is mammalian aminopeptidase N (mAPN). The conditions noted are these: cited from earlier work.
Data set [10] has as its system E. coli (EcPepN) M1 aminopeptidase. The settings on record: ref 43; cited from earlier work.
The target in data set [11] is human arginyl aminopeptidase B (HsAPB). The conditions noted are these: cited from earlier work.
For data set [12], the target named is human puromycine sensitive aminopeptidase (HsPSA). The settings on record: ref 37; cited from earlier work.
The target of data set [13] is P. falciparum (PfAM1) M1 aminopeptidase. The settings on record: ref 44; cited from earlier work.
The target in data set [14] is mammalian cytosolic leucine aminopeptidase (mLAPc). The conditions noted are these: cited from earlier work.
Data set [15] addresses bimetallic aminopeptidase from A. proteolytica (AAP). The arrangement: method as in PMID 21292493. The conditions noted are these: ref 42; cited from earlier work.
Data set [16] addresses human Leucyl-cystinyl aminopeptidase (HsIRAP). The conditions noted are these: ref 48; cited from earlier work.
Data set [17] deals with human aminopeptidase A (HsAPA). The conditions noted are these: NI = no inhibition; cited from earlier work.
In data set [18] the target is human leukotriene A4 hydrolase (HsLTA4H). The conditions noted are these: ref 37; cited from earlier work.

Like-named read-outs stand apart in the source and are kept apart here.

We go through five compounds from publication PMC6222927, “Aminobenzosuberone Scaffold as a Modular Chemical Tool for the Inhibition of Therapeutically Relevant M1 Aminopeptidases” (Molecules : A Journal of Synthetic Chemistry and Natural …, 2018).

T3 sequence (Q6P179 whole entry): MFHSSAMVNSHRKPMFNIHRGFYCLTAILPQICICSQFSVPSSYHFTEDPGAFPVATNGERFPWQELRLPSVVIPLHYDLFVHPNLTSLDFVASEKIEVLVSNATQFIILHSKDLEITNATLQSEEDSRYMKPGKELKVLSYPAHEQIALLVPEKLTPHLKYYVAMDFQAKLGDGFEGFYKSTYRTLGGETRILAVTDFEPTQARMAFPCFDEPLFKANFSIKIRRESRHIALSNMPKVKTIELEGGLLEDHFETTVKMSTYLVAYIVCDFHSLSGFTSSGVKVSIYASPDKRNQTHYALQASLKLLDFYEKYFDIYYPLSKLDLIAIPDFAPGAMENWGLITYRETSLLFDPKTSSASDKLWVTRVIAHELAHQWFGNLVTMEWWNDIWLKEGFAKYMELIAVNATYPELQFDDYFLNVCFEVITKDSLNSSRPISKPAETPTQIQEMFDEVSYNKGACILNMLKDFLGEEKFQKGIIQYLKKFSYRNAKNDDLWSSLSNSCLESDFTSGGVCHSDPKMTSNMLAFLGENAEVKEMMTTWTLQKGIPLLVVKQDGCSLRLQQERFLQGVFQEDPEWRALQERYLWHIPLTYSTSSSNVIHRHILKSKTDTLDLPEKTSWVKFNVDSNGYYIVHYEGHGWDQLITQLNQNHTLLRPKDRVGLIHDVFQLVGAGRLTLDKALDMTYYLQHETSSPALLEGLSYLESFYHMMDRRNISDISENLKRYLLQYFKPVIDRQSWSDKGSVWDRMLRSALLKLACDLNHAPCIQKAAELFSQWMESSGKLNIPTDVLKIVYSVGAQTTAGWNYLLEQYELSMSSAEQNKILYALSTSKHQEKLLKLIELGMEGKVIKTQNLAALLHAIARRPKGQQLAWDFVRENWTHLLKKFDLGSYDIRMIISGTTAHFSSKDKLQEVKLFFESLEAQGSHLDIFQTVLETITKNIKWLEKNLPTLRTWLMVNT
Chain of E. coli rEcPepN (P04825 whole entry): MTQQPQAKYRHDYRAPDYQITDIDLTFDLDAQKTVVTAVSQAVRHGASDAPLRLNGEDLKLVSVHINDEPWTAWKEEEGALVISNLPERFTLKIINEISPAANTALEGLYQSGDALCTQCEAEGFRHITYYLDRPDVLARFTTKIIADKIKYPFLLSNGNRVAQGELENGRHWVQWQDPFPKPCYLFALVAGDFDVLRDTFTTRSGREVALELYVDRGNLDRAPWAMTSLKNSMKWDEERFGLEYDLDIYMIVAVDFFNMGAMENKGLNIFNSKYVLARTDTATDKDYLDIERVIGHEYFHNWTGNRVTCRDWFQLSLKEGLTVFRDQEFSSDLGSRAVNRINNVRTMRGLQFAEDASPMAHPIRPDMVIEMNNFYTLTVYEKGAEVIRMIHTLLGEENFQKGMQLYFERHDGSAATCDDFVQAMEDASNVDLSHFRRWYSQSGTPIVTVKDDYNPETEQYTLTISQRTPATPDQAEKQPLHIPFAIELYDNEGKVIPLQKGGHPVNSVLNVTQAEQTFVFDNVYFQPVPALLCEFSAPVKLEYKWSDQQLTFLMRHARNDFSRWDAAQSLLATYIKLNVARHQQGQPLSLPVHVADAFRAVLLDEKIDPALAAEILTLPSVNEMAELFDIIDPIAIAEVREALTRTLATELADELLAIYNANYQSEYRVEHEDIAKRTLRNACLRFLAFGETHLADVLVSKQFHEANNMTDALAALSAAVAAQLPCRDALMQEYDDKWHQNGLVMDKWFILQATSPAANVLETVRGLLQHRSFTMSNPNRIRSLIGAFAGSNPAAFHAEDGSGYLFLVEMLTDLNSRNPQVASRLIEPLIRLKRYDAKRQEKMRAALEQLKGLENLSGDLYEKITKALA
Chain of human puromycine sensitive aminopeptidase (rHsPSA) (P55786 whole entry): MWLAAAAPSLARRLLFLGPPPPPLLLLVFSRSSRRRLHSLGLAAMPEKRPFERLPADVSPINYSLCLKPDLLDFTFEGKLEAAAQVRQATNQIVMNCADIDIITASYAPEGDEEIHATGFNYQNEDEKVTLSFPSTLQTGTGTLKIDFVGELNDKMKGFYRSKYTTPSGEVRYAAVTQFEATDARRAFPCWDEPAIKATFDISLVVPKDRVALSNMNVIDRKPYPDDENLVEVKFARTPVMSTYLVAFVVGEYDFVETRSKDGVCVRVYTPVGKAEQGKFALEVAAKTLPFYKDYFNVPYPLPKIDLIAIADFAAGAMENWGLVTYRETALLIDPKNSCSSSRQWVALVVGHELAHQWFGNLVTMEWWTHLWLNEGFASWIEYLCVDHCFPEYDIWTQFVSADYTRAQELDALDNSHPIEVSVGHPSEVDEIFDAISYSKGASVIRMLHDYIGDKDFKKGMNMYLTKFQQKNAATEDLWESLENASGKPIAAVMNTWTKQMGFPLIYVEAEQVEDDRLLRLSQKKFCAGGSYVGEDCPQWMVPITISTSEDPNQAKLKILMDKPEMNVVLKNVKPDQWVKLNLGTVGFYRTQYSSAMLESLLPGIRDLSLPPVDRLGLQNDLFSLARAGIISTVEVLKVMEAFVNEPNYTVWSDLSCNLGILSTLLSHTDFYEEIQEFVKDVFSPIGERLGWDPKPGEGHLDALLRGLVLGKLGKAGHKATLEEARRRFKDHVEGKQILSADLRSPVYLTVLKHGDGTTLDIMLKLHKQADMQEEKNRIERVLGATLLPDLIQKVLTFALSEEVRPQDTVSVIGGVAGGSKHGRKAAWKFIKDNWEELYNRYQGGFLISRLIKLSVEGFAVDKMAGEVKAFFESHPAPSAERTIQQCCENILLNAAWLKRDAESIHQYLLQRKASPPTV
T4 sequence (Q9NZ08 whole entry): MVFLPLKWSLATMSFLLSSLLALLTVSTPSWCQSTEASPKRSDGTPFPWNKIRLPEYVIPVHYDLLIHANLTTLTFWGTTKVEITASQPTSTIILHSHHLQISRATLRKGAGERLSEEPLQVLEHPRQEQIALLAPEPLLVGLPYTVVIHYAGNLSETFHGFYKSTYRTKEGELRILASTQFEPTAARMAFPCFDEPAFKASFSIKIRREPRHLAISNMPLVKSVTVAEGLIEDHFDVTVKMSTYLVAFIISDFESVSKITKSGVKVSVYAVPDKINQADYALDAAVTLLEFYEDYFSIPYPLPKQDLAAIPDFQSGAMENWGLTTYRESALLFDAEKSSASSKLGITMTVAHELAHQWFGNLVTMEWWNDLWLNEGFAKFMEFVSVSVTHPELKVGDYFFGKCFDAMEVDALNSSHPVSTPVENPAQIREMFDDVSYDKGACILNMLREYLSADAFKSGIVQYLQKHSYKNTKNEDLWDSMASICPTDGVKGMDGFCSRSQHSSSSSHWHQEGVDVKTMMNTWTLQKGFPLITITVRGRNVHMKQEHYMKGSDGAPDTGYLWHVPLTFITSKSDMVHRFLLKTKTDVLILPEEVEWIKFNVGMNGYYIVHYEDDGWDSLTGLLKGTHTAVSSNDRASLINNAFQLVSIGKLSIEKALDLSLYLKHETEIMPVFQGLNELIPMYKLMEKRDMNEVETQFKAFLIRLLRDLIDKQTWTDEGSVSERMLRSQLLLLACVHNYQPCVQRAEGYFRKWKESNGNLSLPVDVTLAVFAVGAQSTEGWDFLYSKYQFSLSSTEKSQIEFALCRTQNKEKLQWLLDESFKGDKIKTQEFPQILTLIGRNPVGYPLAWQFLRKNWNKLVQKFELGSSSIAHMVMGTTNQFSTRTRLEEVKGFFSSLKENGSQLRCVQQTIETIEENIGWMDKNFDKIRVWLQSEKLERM

By Ki is commonly meant the dissociation constant of the complex between target and ligand, obtained from inhibition or displacement. In general, chromatographic logD refers to lipophilicity estimated from chromatographic retention. A high value points to higher lipophilicity. For orientation: IC50 means the concentration that inhibits the measured activity by half. On to `NC1CCc2cccc(-c3ccccc3)c2CC1=O` (centres unmarked) [21c], for which the Ki on P. falciparum rPfAM17 was > 100 µM; at P. falciparum rPfAM1, 50 ± 5 nM; on pAPN from porcine kidney, 7 nM; in [3], 28 µM; in data set [4], 50 ± 4 nM; at E. coli rEcPepN it was 160 ± 12 nM. Besides, the Ki in data set [6] is 19 µM. Also, the chromatographic logD in data set [1] was found to be 2.12. The IC50 in data set [2] was determined as 18 ± 1.3 µM; in [5], 63 ± 3 µM.

Regarding `CC(C)C[C@H](NC(=O)[C@@H](O)[C@H](N)Cc1ccccc1)C(=O)O` [compound 1, Bestatin], the Ki in [7] is 25 nM; in data set [8], 11.2 µM; in [9] (ref 40), 89 µM; in [11] (ref 38), 6 µM; in data set [11] (ref 39) it was 0.014 µM; in data set [13], 190 nM. In addition, the Ki is 0.6 nM in data set [14] (ref 38), 20 nM in [14] (ref 39) and 1.6 nM in data set [15]. Moreover, the values for the IC50 in [9] (ref 37), in data set [10] and in data set [12] were 300 nM, 7.3 µM and 350 nM, respectively.

Regarding `C#CC[C@H](CP(=O)(O)[C@@H](N)CCc1ccccc1)C(=O)N[C@@H](Cc1ccccc1)C(N)=O` [compound 3], in data set [16], the IC50 is 2 nM.

Regarding `NC1Cc2ccc3ccccc3c2CC1=O` (centres unmarked) [compound 5], the values for the Ki in [11] (ref 38), in data set [17] and in [14] (ref 38) were > 1000 µM, > 1 mM and 3000 nM, respectively.

Regarding `CC(C)C[C@@H](C(=O)N[C@H](C(=O)O)c1ccccc1)[C@H](O)C(=O)NO` [compound 8], the IC50 was 850 nM in data set [12], 30 nM in data set [14] (ref 37) and 8 nM in [18].
